In patent US8809377B2, “Deubiquitinase inhibitors and methods for use of the same” (The Regents of the University of Michigan, priority 2010, dated 2014):
“Also recorded” adds a separate entry of the source.

Key:
pStat5 = assay: Western blot of pStat5; type: cell-based; conditions: BV-173 cells, 5 μM, 1 or 2 hours
Procedure: Total cell lysates were prepared by boiling and sonicating cell pellets in 1× Laemmli reducing sample buffer. To prepare detergent soluble and insoluble fractions, cells were lysed in cold isotonic lysis buffer [10 mM Tris-HCl (pH 7.5), 0.5% Triton X-100, 150 mM NaCl along with Mini-Complete and PhosSTOP] for 15 min on ice and centrifuged 10 min at 20,000 RCF. The clarified supernatant was used as the detergent soluble cell fraction. The residual pellet was washed and extracted in Laemmli reducing sample buffer and briefly sonicated to derive the detergent insoluble fraction. Equal volumes of cellular lysate or equal protein amounts were electrophoresed on SDS-PAGE gels and transferred to nitrocellulose membranes (Whatmann, Dassel, Germany). Proteins were detected by immunoblotting.
Cancer Res, 2010. 70(22): p. […] Blood, 2011. 117(11): p. […] Biochem Pharmacol, 2011. 82(4): p. […] Blood, 2007. 109(8): p. 3470-8.

Murine norovirus (MNV) = assay: Murine norovirus plaque assay; type: cell-based; conditions: Norwalk virus
Procedure: Viral titers were determined by plaque assay.
Cells were treated with IFN-β as a positive anti-viral control.

Toxoplasma gondii = Toxoplasma gondii replication in human foreskin fibroblasts; type: cell-based
Procedure: Primary human foreskin fibroblasts (HFF) were infected with trachyzoites in the presence of WP1130 or vehicle control for 24 hours. […] 1.25×10^5 tachyziotes (RH strain) (MOI=1) were added to each well of a chamber slide in the presence of WP1130 or vehicle control. At 24 hours post infection, cells were fixed in 4% paraformaldehyde for fifteen minutes. Cells were then washed with PBS and analyzed by immunofluorescence microscopy. Parasites were stained with an anti-SAG 1 antibody (the immunodominant surface antigen of T. gondii) followed by an Alexa 594-labeled secondary antibody and DAPI. For quantitative analysis the number of parasites/vacuole were counted.
WP1130 also blocks the replication of the apicomplexan Toxoplasma gondii in primary human foreskin fibroblasts. Cells were treated with WP1130 and infected with tachyziotes (RH strain) (MOI 1) for 24 hr before performing immunofluorescence and counting parasite-containing vacuoles.

USP14 = target: T1, USP14 (Homo sapiens, UniProt P54578); assay: HA-UbVs labeling of USP14; type: cell-based; conditions: Z138 cells, 1, 5 or 10 μM, 1 hour
T1 construct: endogenous in cells; host or cells: Z138
Procedure: To assay for changes in activity of cellular deubiquitinase enzymes, Z138 and HEK293 cells were lysed in DUB buffer (50 mM Tris pH 7.4, 5 mM MgCl2, 150 mM NaCl) for 10 min at 4° C. The lysates were centrifuged at 20,000 RFC for 10 min and the supernatant was used for DUB labeling. Equal amounts of lysate were incubated with 500 ng of HA-UbVs for 1 hr at room temperature, followed by boiling in reducing sample buffer and resolving by SDS-PAGE. After protein transfer to nitrocellulose membranes, HA immunoblotting was used to detect DUB labeling.
Hemagglutinin-tagged ubiquitin vinyl methyl sulfone (HA-UbVs) acts as a DUB suicide substrate, forming a covalent adduct with active DUB enzymes. Specific cellular DUBs can be identified by anti-HA blotting, as previously shown in various cell types. Changes in specific DUB activities are measurable by monitoring HA-labeling in lysates from control and treated cells. Z138 cells were treated with WP1130 at 1, 5, or 10 μM or AG490 at 250 μM for 1 hours and lysed. 20 μg of clarified supernatant was incubated with 200 nM of HA-UbVS for 1 hr at 37° C. […] An in vitro analysis using cell lysates was performed to investigate direct DUB inhibition by WP1130. Briefly, untreated Z138 cell lysates were incubated with 5 μM WP1130 or vehicle alone for one hour at 37° C., followed by labeling with HA-UbVs.

20S proteasome = target: T2, 20S proteasome (Homo sapiens, UniProt P28074); assay: Proteasome activity assay in treated cells (Suc-LLVY-AMC); type: cell-based; conditions: 5 μM, 2 hr
T2 construct: endogenous in cells; host or cells: K562 and other CML lines, Z138
Procedure: Fluorogenic substrate Suc-LLVY-AMC was used to assay for the chymotryptic-like activity of the 20S proteasome. To assay for in vivo proteasome inhibition cells were treated with WP1130 (5 μM) or MG132 (5 μM) for 2 hours and lysed in ice-cold lysis buffer (50 mM HEPES, pH 7.5, 5 mM EDTA, 150 mM NaCl, 1% Triton X-100). Lysates were clarified by centrifugation at 20,000 RCF for 10 min and equal amounts of protein from each sample were incubated at 37° C. with 100 μM fluorogenic substrate. To assay for direct inhibition of the 20S proteasome in vitro, purified 20S human proteasome (200 ng) was incubated with WP1130 (5 μM), MG132 (5 μM) or Lactacystin (5 μM) for 30 min at 37° C. before addition of the substrates. Fluorescence intensity was measured using a spectrophotometer at excitation 360 nm & emission 460 nm. Assays were performed in triplicate, and statistical significance was determined with a paired Student's t test.

Hsp70 = Hsp70 immunoblot; type: cell-based; conditions: CML cells
[1] = tested on: Encephalomyocarditis virus; assay: Encephalomyocarditis virus plaque assay; conditions: 5 μM, 30 min pre-treatment, listed as HWP1130
[2] = primary human foreskin fibroblasts, RH strain MOI 1, 24 hr

T2 sequence (P28074 60-263): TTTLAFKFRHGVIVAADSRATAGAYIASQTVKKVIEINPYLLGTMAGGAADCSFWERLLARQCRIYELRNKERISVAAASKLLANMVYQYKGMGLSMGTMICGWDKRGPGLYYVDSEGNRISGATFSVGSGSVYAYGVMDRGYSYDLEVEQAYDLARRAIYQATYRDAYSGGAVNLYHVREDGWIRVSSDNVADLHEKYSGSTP
T1 sequence (P54578 whole entry): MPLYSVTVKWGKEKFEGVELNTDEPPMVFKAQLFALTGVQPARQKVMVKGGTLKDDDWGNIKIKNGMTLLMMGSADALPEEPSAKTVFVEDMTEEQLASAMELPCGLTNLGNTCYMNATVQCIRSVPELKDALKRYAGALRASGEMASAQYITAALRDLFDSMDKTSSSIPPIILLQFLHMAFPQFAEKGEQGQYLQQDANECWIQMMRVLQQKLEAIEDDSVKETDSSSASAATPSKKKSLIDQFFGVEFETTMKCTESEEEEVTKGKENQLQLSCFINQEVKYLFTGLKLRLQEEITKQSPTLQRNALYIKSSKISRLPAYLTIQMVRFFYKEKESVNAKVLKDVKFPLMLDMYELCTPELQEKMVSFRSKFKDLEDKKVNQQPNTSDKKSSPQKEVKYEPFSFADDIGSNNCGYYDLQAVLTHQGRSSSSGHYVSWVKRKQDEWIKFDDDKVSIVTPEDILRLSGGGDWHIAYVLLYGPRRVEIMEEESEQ

## CCC[C@H](NC(=O)/C(C#N)=C/c1cccc(Br)n1)c1ccccc1 [WP1130]
pStat5
  phosphorylation of Stat5: loss of phosphorylation of Stat5
Murine norovirus (MNV); RAW264.7, MNV, murine macrophages (RAW264.7 or bone marrow derived), 5 μM, 30 min pre-treatment, 8-12 hr, read-out: Log inhibition by plaque assay
  log reduction at 5 µM: ~2
Murine norovirus (MNV); RAW264.7, MNV-1, RAW 264.7, 12 hours postinfection, read-out: anti-viral EC50 activity
  EC50: 1900 nM
Toxoplasma gondii; HFF, 5 μM, 24 hours post infection
  number of parasites per vacuole: significantly reduced
Toxoplasma gondii; [2]
  decrease in the vacuoles containing 4 parasites: ~5 fold
  increase in the number of vacuoles containing only 1 parasite: ~3 fold
USP14
  HA-UbVS labeling of USP14: dose-dependent and time reduction in the labeling
20S proteasome
  20S proteasome chymotryptic-like activity in intact cells (in vivo): did not suppress; also recorded: no significant decline
Hsp70
  Hsp70 protein levels: increased
[1]
  Log inhibition by plaque assay: 2 log
